Assay results published in patent US20190125934A1, “TOUGH HYDROGEL COATING AND METHOD OF MANUFACTURE” (Massachusetts Institute of Technology, priority 2017, published 2019).
Structures can show the parent of a compound that is named as a salt.

Assays:
[1] = test system: Escherichi coli strain expressing green fluorescent protein; assay: Bacterial adhesion testing; format: cell-based; conditions: 24 hour incubation; FIG. 4; streptomycin sulfate 0.1 wt %
Description: The high robustness and stretchability of the hydrogel-elastomer laminates allows for proper functioning of the devices under stresses and deformations. […] In addition, the lubricious and highly hydrated hydrogel coating surfaces provided by the present invention are capable of improving protein adsorption, anticlotting and foreign-body reaction of the device as compared to an uncoated device. Moreover, the coating protocol of the present invention can be designed to include therapeutic agents in the hydrogel coating and/or to introduce hydrogel components with known biological responses such as PEG, hyaluronic acid, and zwitterionic groups.
An engineered Escherichi coli strain expressing green fluorescent protein was cultured in a 24-well plate above 8 mm round samples of latex, glass or swollen hydrogel laminate (PAAm-ALG and PAAm-CHI, as described previously). Streptomycin sulfate (Sigma-Aldrich S9137) was added to the two laminate formulations, at a final concentration of 0.1 wt %. After incubating at 37° C. for 24 h, the samples were removed, rinsed with PBS to remove free-floating bacteria, and imaged with a fluorescent microscope (Nikon Eclipse LV100ND).

[2] = Two-chamber release test of model drugs from hydrogel laminate; format: physicochemical; conditions: for dye leakage through the laminate into the opposite chamber: absorbance at 550 nm and 630 nm in both chambers; for power law release exponent: release from hydrogel layers of the laminate into DI water, Fickian release
Description: A two-chamber diffusion device was made using cast acrylic plates (McMaster Carr), and small magnetic stir bars and stir plates (VWR International) were used for stirring. For the diffusion tests, a 3cm×3 cm hydrogel, elastomer, or impermeable hydrogel laminate sample was placed between the chambers and screwed together tightly to prevent leakage from the chambers. A 5.0×10−4 M rhodamine B solution (Sigma-Aldrich R6626) was placed on one chamber while DI water was placed in the opposite chamber, and 1 mL aliquots were taken every 10 min and placed in a disposable cuvette. Absorbance was measured using a spectrophotometer (BioMate 3S, ThermoFischer Scientific) and converted to concentration using calibration curves of solutions with known concentrations. The setup for release experiments was identical except both chambers initially contained DI water with rhodamine B and green food dye (Fast green FCF, Sigma-Aldrich F7252) being released from the hydrogel. For rhodamine diffusion and release, a wavelength sweep was performed to determine the maximum absorbance, which occurred at 550 nm. The calibration curve was constructed by measuring absorbance of standard solutions in the 0-50×10−6 m range. For green food dye release, the maximum absorbance occurred at 630 nm. The calibration curve was constructed by measuring absorbance of standard solutions in the 0-200 ppm range.
Taking advantage of the impermeability of the hydrogel-elastomer laminate, the possibility of releasing different molecules from the two sides of the hydrogel sheets in the laminate was tested. Green food dye (Fast Green FCF, Sigma-Aldrich) and rhodamine B were used as model drugs and were loaded into the opposing two hydrogel sheets in the hydrogel-elastomer laminate structure. […] The concentrations of green food dye and rhodamine B in the solutions of both chambers were measured over time using absorbance measurements. […] Since the dyes used have absorbance maximums at different wavelengths (550 nm and 630 nm), it was possible to detect dye leakage through the impermeable hydrogel-elastomer laminate by monitoring the absorbance signals at the two wavelengths in both chambers.

Row | SMILES | effect on antibacterial action of the hydrogel laminates [1] | dye leakage through the laminate into the opposite chamber [2] | power law release exponent [2]
1 | [H]/N=C(/N)N[C@H]1[C@H](O)[C@@H](O)[C@H](O[C@@H]2O[C@@H](C)[C@](O)(C=O)[C@H]2O[C@@H]2O[C@@H](CO)[C@H](O)[C@@H](O)[C@@H]2NC)[C@@H](N/C(N)=N\[H])[C@@H]1O [antibiotic, Streptomycin sulfate] | improve the antibacterial action |  | 
2 | CCN(Cc1cccc(S(=O)(=O)[O-])c1)c1ccc(C(=C2C=CC(=[N+](CC)Cc3cccc(S(=O)(=O)[O-])c3)C=C2)c2ccc(O)cc2S(=O)(=O)[O-])cc1.[Na+].[Na+] [Green food dye, Fast Green FCF] |  | No green food dye was detected in the rhodamine chamber | 0.5
3 | CCN(CC)c1ccc2c(-c3ccccc3C(=O)O)c3ccc(=[N+](CC)CC)cc-3oc2c1 [rhodamine B] |  | vice versa | 0.5
